The source of these data is ChEMBL document CHEMBL1201862, “PubChem BioAssay data set” (2004).

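Briefly, cells in 96-well plates were exposed to five compound concentrations for 48 h, and endpoints were estimated by linear interpolation. At the GI50, growth is halved.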 Calls of active or inactive are those of the source. Rule as the data show it: active = GI50 up to about 1.1 µM and inactive = higher.

Among the test systems are HL-60; RPMI-8226; HT-29; SK-MEL-28; NCI-H522; SK-OV-3; SK-MEL-5; MOLT-4; KM12; IGROV-1; A549; A498; OVCAR-8; UACC-62; LOX IMVI; SN12C; COLO 205; SF-268; OVCAR-5; M14.
Holding throughout (assay): growth of human tumour cells (NCI), 48 h

Take `C=C1C(=O)OC2C=C(C)CC3C=C(CCC=C(C)CCC12)C(=O)O3` (centres undefined): the GI50 was 15.7 µM (inactive) in the test on HL-60; 44.9 µM (inactive) with RPMI-8226; 67 µM (inactive) in the test with HT-29; 58.1 µM (inactive) in the test with SK-MEL-28; 17.3 µM (inactive) with NCI-H522; 121 µM (inactive) in the test with SK-OV-3. Further, the GI50 is 67.9 µM (inactive) in the test on SK-MEL-5; 54 µM (inactive) in the test on MOLT-4; 52.7 µM (inactive) with KM12; 48 µM (inactive) in the test with IGROV-1; 99.3 µM (inactive) in the test with A549; 73.1 µM (inactive) in the test on A498. For the same molecule, the GI50 with OVCAR-8 was 72.3 µM (inactive); in the test with UACC-62, 54.2 µM (inactive); in the test on LOX IMVI, 32.5 µM (inactive); with SN12C, 69 µM (inactive); with COLO 205, 53.1 µM (inactive); in the test with SF-268 it was 61.8 µM (inactive). The GI50 in the test on OVCAR-5 was 101 µM (inactive).
Turning to `CO[C@H]1ON=C(c2c(C)cc(C)cc2C)[C@@H]1C1(c2ccccc2)ON=C(c2c(C)cc(C)cc2C)O1` (some centres undefined), the GI50 with HL-60 is 46.3 µM (inactive); in the test on RPMI-8226 it was 37.8 µM (inactive); in the test with SK-MEL-28, > 100 µM (inactive); in the test with NCI-H522, > 100 µM (inactive); in the test with SK-OV-3, > 100 µM (inactive); in the test with MOLT-4 it was 87.1 µM (inactive). Moreover, the GI50 in the test with KM12, in the test on IGROV-1, in the test on A549, in the test with OVCAR-8, in the test on UACC-62 and in the test on LOX IMVI was > 100 µM (inactive) in each case. The GI50 in the test with SN12C, in the test on COLO 205, with SF-268 and in the test on OVCAR-5 was > 100 µM (inactive) each time.
Consider `[O-][S+]1[C@H](c2ccccc2)c2c(-c3ccccc3)sc(-c3ccccc3)c2[C@@H]1c1ccccc1` (some centres undefined), for which the GI50 in the test with HL-60 was 4.31 µM (inactive); in the test with RPMI-8226, 6.04 µM (inactive); in the test on HT-29 it was 41 µM (inactive); in the test on SK-MEL-28, 96.6 µM (inactive); with NCI-H522, 3.23 µM (inactive); with SK-OV-3 it was > 100 µM (inactive). Besides, the GI50 in the test on SK-MEL-5 is 6.15 µM (inactive); in the test on MOLT-4, 4.75 µM (inactive); in the test with KM12, 12.5 µM (inactive); with IGROV-1 it was > 100 µM (inactive); in the test on A549, 10.8 µM (inactive); in the test with OVCAR-8, 8.75 µM (inactive). For the same molecule, the GI50 with UACC-62 is 39.6 µM (inactive); in the test with M14, 85.9 µM (inactive); in the test on LOX IMVI it was 94.8 µM (inactive); in the test with SN12C it was 25.3 µM (inactive); in the test with COLO 205, 23.1 µM (inactive); in the test on SF-268, > 100 µM (inactive). The GI50 in the test on OVCAR-5 was 3.66 µM (inactive).
As to `CC1(C)CC[C@]2(C(=O)O)CC[C@]3(C)C(=CC[C@@H]4[C@@]5(C)CC[C@@H]6OC(C)(C)OC[C@@]6(C)[C@@H]5CC[C@]43C)[C@H]2C1`, the GI50 was 8.51 µM (inactive) in the test with HL-60; 6 µM (inactive) in the test on RPMI-8226; 4.54 µM (inactive) in the test on HT-29; 14.4 µM (inactive) with SK-MEL-28; 7.71 µM (inactive) in the test with NCI-H522; 17.1 µM (inactive) with SK-OV-3. In addition, the GI50 was 11.5 µM (inactive) in the test with MOLT-4; 11.4 µM (inactive) in the test on IGROV-1; 15.4 µM (inactive) with A498; 7.64 µM (inactive) with OVCAR-8; 10.4 µM (inactive) with UACC-62; 15.5 µM (inactive) in the test on M14. Further, the GI50 with LOX IMVI was 4.8 µM (inactive); in the test with SN12C, 3.13 µM (inactive); in the test with COLO 205, 11.3 µM (inactive); in the test on SF-268, 8.04 µM (inactive); in the test with OVCAR-5, 16.8 µM (inactive).
In the case of `C=CCNC(=O)CN(CC(=O)OC)C1CCCCC1N(CC(=O)OC)CC(=O)OC` (centres undefined), the GI50 in the test with HL-60, with RPMI-8226, in the test with HT-29, in the test with SK-MEL-28, in the test with NCI-H522 and in the test on SK-OV-3 was > 100 µM (inactive) each time. Further, the GI50 in the test with SK-MEL-5, with MOLT-4, in the test on KM12, in the test with IGROV-1, in the test with A549 and with A498 was > 100 µM (inactive) throughout. The GI50 in the test with OVCAR-8, with UACC-62, in the test with M14, in the test with LOX IMVI, in the test with SN12C and in the test with SF-268 was > 100 µM (inactive) each time. The GI50 with OVCAR-5 was > 100 µM (inactive).
Regarding `O=C1C(Cl)N(c2ccccc2Cl)C1c1c[nH]c2ccccc12` (centres undefined), the GI50 in the test with HL-60, in the test with RPMI-8226, in the test on HT-29, in the test on SK-MEL-28, with NCI-H522 and in the test on SK-OV-3 was > 100 µM (inactive) throughout. In addition, the GI50 with SK-MEL-5, with MOLT-4, in the test with KM12, in the test with IGROV-1, in the test on A549 and in the test on OVCAR-8 was > 100 µM (inactive) in each case. Also, the GI50 in the test with UACC-62, in the test on M14, with SN12C, in the test on COLO 205 and with SF-268 was > 100 µM (inactive) each time.
`O=C(Nc1cccc2ccccc12)Oc1ccccc1C1CCCCC1`: the GI50 is 27.2 µM (inactive) with HL-60; 30.3 µM (inactive) in the test on RPMI-8226; 18.2 µM (inactive) in the test on HT-29; 22.6 µM (inactive) in the test on SK-MEL-28; 30.8 µM (inactive) in the test on SK-OV-3; 15.5 µM (inactive) in the test on SK-MEL-5. The GI50 with MOLT-4 was 15.9 µM (inactive); in the test on KM12, 20.2 µM (inactive); with IGROV-1 it was 23 µM (inactive); with A549, 21.4 µM (inactive); in the test on A498 it was 17.6 µM (inactive); in the test with OVCAR-8 it was 15.9 µM (inactive). Further, the GI50 is 15.9 µM (inactive) in the test with UACC-62; 18.1 µM (inactive) in the test with M14; 16.3 µM (inactive) in the test on LOX IMVI; 16 µM (inactive) with SN12C; > 10 µM (inactive) with COLO 205; 24.4 µM (inactive) in the test with SF-268. Further, the GI50 in the test with OVCAR-5 was 17.3 µM (inactive).
For the molecule `CNC(=O)N(C)COC`, the GI50 in the test with HL-60, in the test on RPMI-8226, in the test on HT-29, with SK-MEL-28, in the test on NCI-H522 and in the test with SK-OV-3 was > 100 µM (inactive) throughout. For the same molecule, the GI50 with MOLT-4, with KM12, in the test with IGROV-1, with A549, with A498 and with OVCAR-8 was > 100 µM (inactive) each time. Moreover, the GI50 with UACC-62, in the test on M14, in the test on LOX IMVI, in the test on SN12C, in the test with COLO 205 and in the test with SF-268 was > 100 µM (inactive) each time. For the same molecule, the GI50 with OVCAR-5 was > 100 µM (inactive).
On to `Cc1cn(Cc2cn(CC3OC(n4cc(C)c(=O)[nH]c4=O)CC3O)nn2)c(=O)[nH]c1=O` (centres undefined), for which the GI50 in the test with RPMI-8226, with SK-MEL-28, in the test on SK-OV-3, in the test with SK-MEL-5, in the test on MOLT-4 and in the test with KM12 was > 100 µM (inactive) throughout. Besides, the GI50 in the test with A549, with A498, in the test with OVCAR-8, with UACC-62, in the test on M14 and with SN12C was > 100 µM (inactive) in each case. The GI50 with COLO 205, with SF-268 and in the test on OVCAR-5 was > 100 µM (inactive) each time.
As for `CCOc1ccc2nc(NC(=O)C(=O)C(C(=O)c3ccccc3F)C3OC(=O)c4ccccc43)sc2c1` (centres undefined), the GI50 with HL-60 was 16.8 µM (inactive); in the test on RPMI-8226, 19.1 µM (inactive); with SK-MEL-28 it was 24.4 µM (inactive); in the test with NCI-H522, 14 µM (inactive); in the test with SK-OV-3, 24.1 µM (inactive); in the test with SK-MEL-5, 15.9 µM (inactive). The GI50 with MOLT-4 was 10.3 µM (inactive); in the test on KM12, 0.723 µM (active); with IGROV-1, 25.6 µM (inactive); in the test with A549, 31.6 µM (inactive); with A498, 25.8 µM (inactive); in the test on OVCAR-8 it was 16 µM (inactive). For the same molecule, the GI50 in the test with UACC-62 is 14.6 µM (inactive); with M14, 16.5 µM (inactive); with SN12C, 16.4 µM (inactive); in the test with COLO 205 it was 15.6 µM (inactive); in the test on SF-268, 16.1 µM (inactive).
For `C=C(/C=C/C=C(\C)CCC=C(C)C)[C@@H]1CC[C@]2([C@H](CCCO)/C(=C(/C)C=O)CC[C@]2(C)O)[C@@H]1O`, the GI50 is 11.5 µM (inactive) in the test on HL-60; 15.8 µM (inactive) in the test on HT-29; 15.1 µM (inactive) with SK-MEL-28; 16.7 µM (inactive) with NCI-H522; > 100 µM (inactive) with SK-OV-3; 22.6 µM (inactive) in the test on SK-MEL-5. In addition, the GI50 in the test on MOLT-4 was 7.62 µM (inactive); in the test on KM12 it was 1.41 µM (inactive); with IGROV-1, 32.2 µM (inactive); in the test on A549, 13.3 µM (inactive); with OVCAR-8 it was 20.6 µM (inactive); in the test on M14 it was 21.7 µM (inactive). Also, the GI50 with LOX IMVI is 14.7 µM (inactive); with SN12C, 17.1 µM (inactive); with COLO 205, 11 µM (inactive); with SF-268, 19.2 µM (inactive); in the test on OVCAR-5, 61.8 µM (inactive).
